In data set [1] the test system is human neutrophils. Kind of data set: Flow cytometric analysis of neutrophil cytotoxicity (PI cell death, forward scatter). To be noted: for increase in forward scatter: pancreatic proteases alone; for cytotoxicity to neutrophils: pure proteases at the tested concentrations. It counts as cell-based. How it is done:
Cytotoxicity measurement—flow cytometric analysis of neutrophil cytotoxicity: For measurements of cell death and forward scatter (a measure of cell “size”) by flow cytometry, 100 μl of sample were mixed with 100 μl of cells (10^6 cells/ml final) and after selected periods of incubation, a life/death indicator (200 μl of 2 μM propidium iodide, PI) was added. Within seconds of PI addition, the sample was tested in a flow cytometer (Beckton-Dickson FACScan; Franklin Lakes N.J.).
Flow cytometric analysis of neutrophils was carried out by plotting forward scatter (FSC) on the ordinate and FL-2 (PI fluorescence) on the abscissa. […] Two regions on the scatter plot were gated. Region 1 (R1) was for live cells, and was constructed to monitor an increase in cell size that results from bleb formation and also to observe the small uptake of PI that occur may prior to total membrane failure. […] Ten thousand cells were evaluated per sample. Cell death was reported as the percentage of total cells located in R2, i.e., Death=100%*(# in R2)/(# in R1+# in R2).
(Flow cytometry measures light scatter and fluorescence of single cells or particles in a stream.)

Data set [2] concerns casein. Kind of data set: Protease activity measurement (Enzcheck casein kit) of proteases, homogenates and luminal fluids. To be noted: mixed with equal volume of PBS; fluorescence after 90 minutes; mean±SD, N=6. It counts as biochemical. The method, then:
In vitro studies of intestinal wall homogenate digested with proteases—enzymatic digestion of wall homogenates: Wall homogenates were rapidly thawed at 37° C. and mixed with equal volumes of PBS, TPCK-treated trypsin, TLCK-treated chymotrypsin, or elastase. Controls of the proteases alone also were created by mixing them with equal volumes of PBS. Since lower grades of trypsin are often contaminated with the activity of chymotrypsin and vice versa, trypsin pretreated with TPCK (a specific chymotrypsin inhibitor) and chymotrypsin pretreated with TLCK (a trypsin inhibitor) were used to reduce any effects of cross contamination. Before mixing with wall homogenate, the enzymes were reconstituted in PBS at the following concentrations: 1 mg/ml for TPCK-treated trypsin, 1 mg/ml for TLCK-treated chymotrypsin, and 0.5 mg/ml for elastase.
The groups were treated as follows: the luminal fluids from 5 animals were incubated separately (37° C., 3 hours) and aliquots of each sample were collected. One aliquot was filtered through 4 glass fiber pre-filters in series. The unfiltered and filtered aliquots were mixed with equal volumes of PBS (to generate the Lumen and Filtered Lumen groups, respectively) or with wall homogenate from the same animal (to generate the Wall+Lumen and Wall+Filtered Lumen groups, respectively). The Wall group was prepared by mixing wall homogenates with equal volumes of PBS. All samples were incubated at 37° C. for 3 additional hours, aliquotted, and frozen (−70° C.) for later evaluation of neutrophil cytotoxicity and protease activity.

The nature of data set [3]: Solubility of ANGD in luminal fluid. To be noted: with or without glucose; white precipitate formed. It counts as physicochemical. The source says:
(§1) To determine if enzyme inhibition could prevent the generation of cytotoxic mediators from luminal contents, luminal fluids were pre-filtered through three glass fiber filters in series, a procedure that reduces cytotoxic activity, allowing the experiments to be focused solely on new cytotoxic mediator formation. […] The precipitate was separated following the digestion period and the supernatant collected. All samples were then aliquotted and frozen for later measurements of protease activity and neutrophil cytotoxicity.

Data set [4] relates to digestive enzymes in luminal contents. Kind of data set: Protease activity of wall homogenates digested with filtered luminal fluid with or without protease inhibitors. It counts as biochemical, rat. To be noted: filtered luminal fluid plus inhibitor incubated with wall homogenates 3 hours at 37° C.; final 1 mM PMSF, 1.25 mg/ml (2.31 mM) ANGD.
Description: as §1

Setting [5] is: wall homogenates digested with filtered luminal fluid with inhibitor, exposure 20, 30 or 40 minutes.

For the molecule trypsin, in data set [1], the “increase in forward scatter” value was “no significant effect” and the cytotoxicity to neutrophils entry was “not cytotoxic”. In data set [2], this molecule showed a protease activity of 300±33 RFU.
In the same order, the values of chymotrypsin are “significantly elevated at 90 minutes”, “not cytotoxic” and 2371±230 RFU.
Consider `CS(=O)(=O)O.CS(=O)(=O)O.N=C(N)Nc1ccc(C(=O)Oc2ccc3cc(C(=N)N)ccc3c2)cc1` [ANGD, 6-amidino-2-naphthyl p-guanidinobenzoate dimethanesulfonate], for which, in data set [1] (setting [5]), the neutrophil cell death result was “significantly decrease the cell death compared to controls” and the neutrophil forward scatter entry is recorded as “prevented the large increase in forward scatter”. Also, the “solubility in the luminal fluid” value in data set [3] is “not completely soluble”. In addition, the “protease activity inhibited in the digested homogenates” value in data set [4] is “less effective”.
On to `O=S(=O)(F)Cc1ccccc1` [PMSF, phenylmethylsulfonyl fluoride], for which the “cytotoxicity compared to samples without PMSF” value in data set [1] (PMSF added after digestion of wall homogenate by chymotrypsin, not statistically significant) is reported as “slightly increased cytotoxicity”. Besides, the neutrophil cell death entry is “no cell death” in data set [1] (PMSF added prior to digestion of wall homogenate by chymotrypsin) and “Neither PMSF nor ANGD alone entirely prevented cell death” in data set [1] (setting [5]). The “protease activity inhibited in the digested homogenates” value in data set [4] is given as “approximately half”.
As for “elastase: pancreatic elastase from Worthington Biochemicals, 0.5 mg/ml in PBS”, in data set [1], the “increase in forward scatter” value was “greatest increase” and the cytotoxicity to neutrophils entry is “not cytotoxic”. Further, the protease activity in data set [2] stood at 2389±300 RFU.

(Values after patent US20080195024A1, “Treating Disorders Associated with Inflammation” (priority 2005, published 2008).)
